Structures are written as SMILES.

Assay [1] deals with T1, D(2) dopamine receptor (Homo sapiens, UniProt P14416). As to the kind of experiment: Displacement of [3H]-spiperone from human D2 receptor assessed as inhibition constant.
For assay [2], the target named is T2, D(3) dopamine receptor (Homo sapiens, UniProt P35462). The assay can be described thus: Displacement of [3H]-spiperone from human D3 receptor assessed as inhibition constant.
In assay [3] the target is T3, D(4) dopamine receptor (Homo sapiens, UniProt P21917).
T3 sequence (P21917 whole entry): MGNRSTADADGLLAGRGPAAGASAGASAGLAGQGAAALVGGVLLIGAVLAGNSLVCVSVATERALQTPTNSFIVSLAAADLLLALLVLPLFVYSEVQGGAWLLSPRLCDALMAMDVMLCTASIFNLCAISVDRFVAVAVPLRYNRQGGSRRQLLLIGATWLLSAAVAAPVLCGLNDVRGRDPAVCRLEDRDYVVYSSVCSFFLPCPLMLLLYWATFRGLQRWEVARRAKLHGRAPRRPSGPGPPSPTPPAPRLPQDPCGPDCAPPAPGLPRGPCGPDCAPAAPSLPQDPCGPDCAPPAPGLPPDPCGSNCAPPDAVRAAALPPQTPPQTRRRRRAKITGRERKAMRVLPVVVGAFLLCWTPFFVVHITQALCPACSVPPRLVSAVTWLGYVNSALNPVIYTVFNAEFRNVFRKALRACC
The assay can be described thus: Displacement of [3H]-spiperone from human D4 receptor expressed in CHO-K1 cells assessed as inhibition constant measured after 60 mins. In kind it is cell-based.

Assay [4] has as its target T1, D(2) dopamine receptor. The assay can be described thus: Agonist activity at human D2R expressed in HEK293 cells incubated for 3 mins by FLIPR analysis. The class given is cell-based.
Assay [5] has as its target T2, D(3) dopamine receptor. As to the kind of experiment: Binding affinity to human D3R assessed as inhibition constant.
The target in assay [6] is T3, D(4) dopamine receptor. As to the kind of experiment: Displacement of [3H]-spiperone from human D4 receptor expressed in CHO cells assessed as inhibition constant. The class given is cell-based.
Assay [7] addresses T1, D(2) dopamine receptor. As to the kind of experiment: Binding affinity to human D2R assessed as inhibition constant.
Assay [8] has as its target T1, D(2) dopamine receptor. As to the kind of experiment: Binding affinity to D2R (unknown origin) assessed as inhibition constant.
For assay [9], the target named is T2, D(3) dopamine receptor. As to the kind of experiment: Binding affinity to D3R (unknown origin) assessed as inhibition constant.
The target of assay [10] is T3, D(4) dopamine receptor. The assay can be described thus: Binding affinity to human D4R assessed as inhibition constant.
The target in assay [11] is T3, D(4) dopamine receptor. As to the kind of experiment: (§1) Displacement of [3H]-nemonapride from human D4 receptor expressed in CHO cells assessed as inhibition constant. The class given is cell-based.
Assay [12] deals with T3, D(4) dopamine receptor. As to the kind of experiment: Displacement of [3H]-spiperone from human D4 receptor expressed in HEK293 cells assessed as inhibition constant. The class given is cell-based.
The target in assay [13] is T3, D(4) dopamine receptor. The assay can be described thus: Agonist activity at D4R (unknown origin) by camp reporter assay.
Assay [14] concerns the target T3, D(4) dopamine receptor. The assay can be described thus: Displacement of [3H]-methylspiperone from D4 (unknown origin) receptor expressed in HEK293T cells assessed as inhibition constant. The class given is cell-based.
For assay [15], the target named is T1, D(2) dopamine receptor. The assay can be described thus: Binding affinity to human D2R assessed as inhibition constant by Cheng-Prusoff equation analysis.
For assay [16], the target named is T4, D(4) dopamine receptor (Homo sapiens) (UniProt P21917).
T4 sequence (whole entry): T3 sequence (P21917 whole entry)
The description is as §1. In kind it is cell-based.

Assay [17] concerns the target T3, D(4) dopamine receptor. The assay can be described thus: Agonist activity at D4R (unknown origin).
The target in assay [18] is T4, D(4) dopamine receptor (Homo sapiens). The assay can be described thus: Binding affinity to human D4R at 1 uM relative to control.
Assay [19] deals with 5-hydroxytryptamine receptor 2A (Homo sapiens, UniProt P28223). The assay can be described thus: Binding affinity to 5HT2A receptor (unknown origin) assessed as inhibition constant.
Assay [20] addresses T3, D(4) dopamine receptor. The assay can be described thus: Agonist activity at human D4R.
Assay [21] has as its target T4, D(4) dopamine receptor (Homo sapiens). As to the kind of experiment: Agonist activity at human D4R at 10 uM relative to control.
For assay [22], the target named is T3, D(4) dopamine receptor. The assay can be described thus: Binding affinity to D4R (unknown origin) assessed as inhibition constant.
For assay [23], the target named is T1, D(2) dopamine receptor. The assay can be described thus: Displacement of [3H]-spiperone from human D2 receptor expressed in Sf9 cells assessed as inhibition constant.
The target in assay [24] is T2, D(3) dopamine receptor. As to the kind of experiment: Displacement of [3H]-spiperone from human D3 receptor expressed in CHO cells assessed as inhibition constant. The class given is cell-based.
For assay [25], the target named is T3, D(4) dopamine receptor. The assay can be described thus: Agonist activity at human D4R assessed as [35S] GTPgammaS binding.
Assay [26] concerns the target T4, D(4) dopamine receptor (Homo sapiens). As to the kind of experiment: Agonist activity at human D4R assessed as [35S] GTPgammaS binding relative to control. To be noted: filed as agonist.

T2 sequence (P35462 whole entry): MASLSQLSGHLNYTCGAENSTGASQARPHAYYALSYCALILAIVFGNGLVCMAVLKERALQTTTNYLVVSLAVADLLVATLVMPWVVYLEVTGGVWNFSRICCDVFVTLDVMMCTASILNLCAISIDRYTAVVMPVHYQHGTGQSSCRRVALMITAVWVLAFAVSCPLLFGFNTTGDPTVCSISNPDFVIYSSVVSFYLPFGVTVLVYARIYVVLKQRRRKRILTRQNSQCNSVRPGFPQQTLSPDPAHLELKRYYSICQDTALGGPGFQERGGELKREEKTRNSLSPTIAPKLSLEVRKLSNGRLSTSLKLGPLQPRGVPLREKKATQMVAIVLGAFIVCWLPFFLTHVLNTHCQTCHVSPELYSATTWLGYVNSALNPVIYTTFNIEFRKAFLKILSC
T1 sequence (P14416 whole entry): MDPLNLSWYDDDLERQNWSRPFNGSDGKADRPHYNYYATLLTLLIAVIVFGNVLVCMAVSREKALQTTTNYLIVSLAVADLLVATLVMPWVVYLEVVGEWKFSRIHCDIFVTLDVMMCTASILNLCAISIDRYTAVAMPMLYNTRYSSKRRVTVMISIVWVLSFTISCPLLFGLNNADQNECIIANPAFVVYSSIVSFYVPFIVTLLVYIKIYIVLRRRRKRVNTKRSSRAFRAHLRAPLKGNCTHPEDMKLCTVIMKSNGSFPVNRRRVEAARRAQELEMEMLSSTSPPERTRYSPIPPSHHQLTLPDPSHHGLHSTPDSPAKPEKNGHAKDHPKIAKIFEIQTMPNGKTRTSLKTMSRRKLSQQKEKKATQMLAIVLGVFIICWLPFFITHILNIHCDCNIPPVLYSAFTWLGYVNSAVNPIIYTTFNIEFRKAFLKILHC
Chain of 5-hydroxytryptamine receptor 2A (P28223 whole entry): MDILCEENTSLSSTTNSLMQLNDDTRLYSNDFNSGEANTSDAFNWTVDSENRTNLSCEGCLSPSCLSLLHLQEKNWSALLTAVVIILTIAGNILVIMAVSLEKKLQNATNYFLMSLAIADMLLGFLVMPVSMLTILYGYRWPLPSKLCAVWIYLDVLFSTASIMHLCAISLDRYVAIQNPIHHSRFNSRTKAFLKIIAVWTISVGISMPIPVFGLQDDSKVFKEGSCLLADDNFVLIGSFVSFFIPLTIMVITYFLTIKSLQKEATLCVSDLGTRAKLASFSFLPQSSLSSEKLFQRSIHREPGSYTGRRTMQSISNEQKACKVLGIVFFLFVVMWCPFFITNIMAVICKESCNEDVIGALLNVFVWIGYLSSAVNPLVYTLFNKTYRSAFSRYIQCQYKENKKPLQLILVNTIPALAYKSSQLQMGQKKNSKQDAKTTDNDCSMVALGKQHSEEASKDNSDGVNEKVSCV

Take `Clc1ccc2c(c1)N=C(N1CCN(c3ccccc3)CC1)CCN2`: the figures for the Ki on D(2) dopamine receptor [1], at D(3) dopamine receptor [2] and at D(4) dopamine receptor [3] were 4.7 µM, 3.4 µM and 0.031 µM, respectively.

`c1ccc(N2CCN(Cc3nc4ccccc4[nH]3)CC2)nc1` [ABT-724] had an EC50 on D(2) dopamine receptor [4] of 0.012 µM.

For `O/N=C/c1c(CN2CCN(c3ccccc3)CC2)[nH]c2ccccc12`, the Ki amounted to 3.7 µM at D(3) dopamine receptor [5], 0.0005 µM at D(4) dopamine receptor [6] and 8.8 µM at D(2) dopamine receptor [7].

For `CN(C)[C@@H](CNC(=O)NC[C@H]1Cc2ccccc21)CC1CCCCC1`, the values for the Ki at D(2) dopamine receptor [8] and on D(3) dopamine receptor [9] were more than 10 µM and 5.4 µM, respectively.

In the case of `OCc1[nH]c2ccccc2c1CN1CCN(c2ccccc2)CC1`, the Ki on D(3) dopamine receptor [5] stood at 3.3 µM; at D(4) dopamine receptor [6] it was 0.00066 µM; at D(2) dopamine receptor [7], 2.1 µM.

For the molecule `Oc1cccc(OCCNCC2COCC(c3ccccc3)(c3ccccc3)O2)c1` (centres undefined), the Ki is more than 10 µM at D(2) dopamine receptor [8] and 0.0014 µM on D(3) dopamine receptor [9].

As to `CCOC(=O)N1CCN(Cc2cnn(-c3ccc(Cl)cc3)c2)CC1`, the Ki is 0.26 µM on D(4) dopamine receptor [10], 10.2 µM on D(2) dopamine receptor [8] and 0.26 µM at D(4) dopamine receptor [11].

On to `COc1cc(Cl)ccc1OCC1CN(Cc2ccc(Cl)cc2)CCO1` (centres undefined), for which, at D(4) dopamine receptor [6], the Ki is 0.0028 µM.

As to `Clc1ccc(OCC2CN(Cc3c[nH]c4ncccc34)CCO2)cc1` (centres undefined), the K at D(2) dopamine receptor [8] was more than 1700 nM. In addition, the Ki on D(4) dopamine receptor [12] amounted to 0.0015 µM; on D(3) dopamine receptor [9] it was 3.2 µM.

In the case of `CC(C)N1C[C@H](NC(=O)N2Cc3ccccc3[C@@H]2C)[C@@H](C)C1`, at D(4) dopamine receptor [13], a half-maximal response (EC50) required 0.00018 µM. Also, the Ki at D(2) dopamine receptor [8] is more than 10 µM; at D(4) dopamine receptor [14], 0.0043 µM; on D(3) dopamine receptor [9], more than 10 µM.

As for `OCc1ccc(N2CCN(Cc3nc4ccccc4[nH]3)CC2)cc1Cl`, the Ki on D(2) dopamine receptor [15] was more than 5.88 µM. Besides, the K in assay [16] was 3.6 nM.

Take `COc1ccccc1OCCNCC1COCC(c2ccccc2)(c2ccccc2)O1` (centres undefined): the half-maximal effective concentration (EC50) at D(4) dopamine receptor [13] amounted to 0.0014 µM. The results for the Ki on D(2) dopamine receptor [8] and at D(3) dopamine receptor [9] were more than 10 µM and 0.013 µM, respectively.

On to `CC(=O)O[C@H]1CC(C)(C)C(=C=C/C(C)=C/C=C/C(C)=C/C=C/C=C(C)/C=C/C=C(\C)C(=O)C[C@@]23O[C@]2(C)C[C@@H](O)CC3(C)C)[C@](C)(O)C1`, for which the EC50 at D(4) dopamine receptor [13] amounted to 82 µM; on D(4) dopamine receptor [17], 16.9 µM.

As for `Clc1ccc2c(c1)N=C(N1CCN(CCCOc3ccccc3)CC1)c1ccccc1N2`, the Activity in [18] stood at 81%.

Molecule `Clc1ccc2c(c1)N=C(N1CCN(CCCCc3ccncc3)CC1)c1ccccc1N2` yielded an Activity in [18] of 78%.

Turning to `Clc1ccc2c(c1)C(N1CCN(CCc3ccccc3)CC1)=Nc1cccnc1N2`, the Ki in [19] was 0.103 µM.

Molecule `Cc1ncc(CN2CC=C(c3ccccc3)CC2)c(N)n1` gave an EC50 on D(4) dopamine receptor [20] of 0.205 µM. Further, the Emax in assay [21] was 36%. The Ki was more than 1 µM at D(3) dopamine receptor [5], 0.0052 µM at D(4) dopamine receptor [6] and more than 1 µM on D(2) dopamine receptor [7].

As for `NS(=O)(=O)c1ccc(N2CCN(CCC3OCCc4ccccc43)CC2)cc1` (centres undefined), the Ki on D(2) dopamine receptor [8] is 5.15 µM; on D(3) dopamine receptor [9], more than 2.78 µM; on D(4) dopamine receptor [22], 0.0036 µM.

On to `N#Cc1[nH]c2ccccc2c1CN1CCN(c2ccccc2)CC1`, for which the Ki on D(3) dopamine receptor [5] stood at 2.5 µM; on D(4) dopamine receptor [6], 0.00076 µM; at D(2) dopamine receptor [7], 4.9 µM.

Turning to `CCOC(=O)c1[nH]c2ccc(F)cc2c1CN1CCN(c2ccccc2)CC1`, the Ki was determined as 15 µM at D(3) dopamine receptor [5], 0.0015 µM on D(4) dopamine receptor [6] and 22 µM at D(2) dopamine receptor [7].

With `COc1cccc(CCC2=NCCN2CCc2ccccc2)c1`, the inhibitory constant (Ki) on D(2) dopamine receptor [8] and at D(3) dopamine receptor [9] was more than 10 µM throughout.

`Clc1ccc2c(c1)N=C(N1CCN(CCCCc3ccccc3)CC1)c1ccccc1N2` showed an Activity in assay [18] of 82%.

Consider `CC(C)Oc1cccnc1N(C)C1CCN(Cc2ccc(I)cc2)CC1`, for which the Ki on D(2) dopamine receptor [23] is 0.568 µM.

Take `COc1ccccc1N1CCN(Cc2ccc3cccccc2-3)CC1`: the Ki on D(3) dopamine receptor [24] is 0.082 µM. The EC50 at D(4) dopamine receptor [25] was found to be 0.0037 µM. Also, in assay [26], the Emax was 54%.

Consider `CCOC(=O)c1sc2[nH]cn/c(=N\[C@H]3CCN(CC)C3)c2c1C`, for which the Ki on D(2) dopamine receptor [8] and on D(3) dopamine receptor [9] was more than 10 µM in each case.

With `CCOC(=O)c1nn(-c2ccccc2)cc1CN(C)[C@@H]1CCSC1`, the EC50 at D(4) dopamine receptor [13] was 10.8 µM.

(Values after ChEMBL document CHEMBL5233263 (Eur J Med Chem, 2021).)
